According to ChEMBL document CHEMBL1833889, “Ursolic acid is a PPAR-α agonist that regulates hepatic lipid metabolism” (Bioorg Med Chem Lett, 2011):
Each block holds one compound with its values, some of them ahead of it. Activity calls are given as the source filed them. The calls are words filed in the database; no cut-off is given here.

What was measured:
HepG2 [1] = assay: Induction of BODIPY-labeled 4,4-difluoro-5-methyl-4-bora-3a,4a-diaza-s-indacene-3-dodecanoic acid uptake in human HepG2 cells after 1 min by FACS analysis; type: functional, cell-based
[2] = target: T1, Peroxisome proliferator-activated receptor alpha (Homo sapiens, UniProt Q07869); assay: (§1) Binding affinity to histidine-tagged human PPARalpha-LBD assessed as recruitment of co-activator peptide fluorescein-labeled PGC1alpha after 2 hrs by TR-FRET assay
T1 sequence (Q07869 whole entry): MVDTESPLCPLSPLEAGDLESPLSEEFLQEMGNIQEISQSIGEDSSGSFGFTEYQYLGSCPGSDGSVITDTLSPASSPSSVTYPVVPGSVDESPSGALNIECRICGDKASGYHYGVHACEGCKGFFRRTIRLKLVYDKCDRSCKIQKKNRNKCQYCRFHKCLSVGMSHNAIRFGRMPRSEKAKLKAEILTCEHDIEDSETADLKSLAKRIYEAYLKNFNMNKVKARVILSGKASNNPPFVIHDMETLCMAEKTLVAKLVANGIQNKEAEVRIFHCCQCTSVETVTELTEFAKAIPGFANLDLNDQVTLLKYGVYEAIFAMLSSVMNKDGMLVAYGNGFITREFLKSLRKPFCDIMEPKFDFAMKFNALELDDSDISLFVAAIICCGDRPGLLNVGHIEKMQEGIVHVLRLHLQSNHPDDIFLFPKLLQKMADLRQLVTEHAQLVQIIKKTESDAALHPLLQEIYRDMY

[3] = target: T2, Peroxisome proliferator-activated receptor alpha (Homo sapiens) (UniProt Q07869); assay: as §1
T2 sequence (whole entry): T1 sequence (Q07869 whole entry)

[4] = target: T2, Peroxisome proliferator-activated receptor alpha (Homo sapiens); assay: Binding affinity to histidine-tagged human PPARalpha-LBD by SPR analysis
HepG2 [5] = assay: Hypolipidemic activity in human HepG2 cells assessed as decrease in triglyceride level at 20 uM relative to control; type: functional; parameters: scale not given: the % may be the effect or the level left
[6] = target: T2, Peroxisome proliferator-activated receptor alpha (Homo sapiens); assay: Agonist activity at PPARalpha in human HepG2 cells assessed as down-regulation of SREBP1c mRNA expression at 80 uM by quantitative PCR analysis; type: functional, cell-based
[7] = target: T2, Peroxisome proliferator-activated receptor alpha (Homo sapiens); assay: Agonist activity at PPARalpha in human HepG2 cells assessed as down-regulation of FAS mRNA expression at 80 uM by quantitative PCR analysis; type: functional, cell-based
HepG2 [8] = assay: Hypolipidemic activity in human HepG2 cells assessed as decrease in triglyceride level at 5 uM relative to control; type: functional; parameters: scale not given: the % may be the effect or the level left
HepG2 [9] = assay: Hypolipidemic activity in human HepG2 cells assessed as decrease in cholesterol level at 5 uM by fluorescence-based method relative to control; type: functional; parameters: scale not given: the % may be the effect or the level left
[10] = target: T2, Peroxisome proliferator-activated receptor alpha (Homo sapiens); assay: Agonist activity at PPARalpha in human HepG2 cells assessed as down-regulation of SCD1 mRNA expression at 80 uM by quantitative PCR analysis; type: functional, cell-based
[11] = target: T2, Peroxisome proliferator-activated receptor alpha (Homo sapiens); assay: Agonist activity at human recombinant PPARalpha expressed in HepG2 cells assessed as binding of activated PPARalpha to the PPRE at 20 uM by ELISA-based assay; type: cell-based
HepG2 [12] = assay: Hypolipidemic activity in human HepG2 cells assessed as decrease in triglyceride level at 80 uM relative to control; type: functional; parameters: scale not given: the % may be the effect or the level left
HepG2 [13] = assay: Induction of BODIPY-labeled 4,4-difluoro-5-methyl-4-bora-3a,4a-diaza-s-indacene-3-dodecanoic acid uptake in human HepG2 cells at 80 uM after 1 min by FACS analysis; type: functional
[14] = target: T2, Peroxisome proliferator-activated receptor alpha (Homo sapiens); assay: Agonist activity at PPARalpha in human HepG2 cells assessed as effect on LPL mRNA expression at 5 to 80 uM by quantitative PCR analysis; type: functional, cell-based
[15] = target: T2, Peroxisome proliferator-activated receptor alpha (Homo sapiens); assay: Agonist activity at PPARalpha in human HepG2 cells assessed as up-regulation of PPARalpha mRNA expression at 5 uM by quantitative PCR analysis; type: functional, cell-based
[16] = target: T1, Peroxisome proliferator-activated receptor alpha; assay: (§2) Agonist activity at human recombinant PPARalpha expressed in HepG2 cells co-transfected with pGL3-PPRE3-TK-luc reporter assessed as […] after 24 hrs by luciferase based transactivation assay; type: functional, cell-based
[17] = target: T2, Peroxisome proliferator-activated receptor alpha (Homo sapiens); assay: as §2; type: functional, cell-based
[18] = target: T2, Peroxisome proliferator-activated receptor alpha (Homo sapiens); assay: Agonist activity at PPARalpha in human HepG2 cells assessed as up-regulation of acyl-CoA synthetase mRNA expression at 5 to 80 uM by quantitative PCR analysis; type: functional, cell-based
HepG2 [19] = assay: Hypolipidemic activity in human HepG2 cells assessed as decrease in cholesterol level at 80 uM by fluorescence-based method relative to control; type: functional; parameters: scale not given: the % may be the effect or the level left
[20] = target: T2, Peroxisome proliferator-activated receptor alpha (Homo sapiens); assay: Agonist activity at PPARalpha in human HepG2 cells assessed as up-regulation of PPARalpha mRNA expression at 80 uM by quantitative PCR analysis; type: functional, cell-based
[21] = target: T2, Peroxisome proliferator-activated receptor alpha (Homo sapiens); assay: Agonist activity at PPARalpha in human HepG2 cells assessed as up-regulation of carnitine palmitoyl transferase mRNA expression at 80 uM by quantitative PCR analysis relative to control; type: functional, cell-based
HepG2 [22] = assay: Hypolipidemic activity in human HepG2 cells assessed as decrease in cholesterol level at 20 uM by fluorescence-based method relative to control; type: functional; parameters: scale not given: the % may be the effect or the level left
[23] = target: T2, Peroxisome proliferator-activated receptor alpha (Homo sapiens); assay: Agonist activity at human recombinant PPARalpha expressed in HepG2 cells co-transfected with pGL3-PPRE3-TK-luc reporter assessed as […] at 80 uM after 24 hrs by luciferase based transactivation assay; type: functional, cell-based
[24] = target: T2, Peroxisome proliferator-activated receptor alpha (Homo sapiens); assay: Agonist activity at PPARalpha in human HepG2 cells assessed as up-regulation of FATP4 mRNA expression at 80 uM by quantitative PCR analysis; type: functional, cell-based
[25] = target: T2, Peroxisome proliferator-activated receptor alpha (Homo sapiens); assay: Agonist activity at PPARalpha in human HepG2 cells assessed as up-regulation of ACOX mRNA level at 80 uM by quantitative PCR analysis; type: functional, cell-based
[26] = target: T2, Peroxisome proliferator-activated receptor alpha (Homo sapiens); assay: Agonist activity at PPARalpha in human HepG2 cells assessed as up-regulation of PPARalpha mRNA expression at 20 uM by quantitative PCR analysis; type: functional, cell-based
[27] = target: T2, Peroxisome proliferator-activated receptor alpha (Homo sapiens); assay: Agonist activity at PPARalpha in human HepG2 cells assessed as up-regulation of FATP4 mRNA expression at 20 uM by quantitative PCR analysis; type: functional, cell-based

- EC50 [2]: 4.5 µM
- Activity [3]: Dose-dependent effect
- Activity [4]: Active
SMILES: CC(C)(Oc1ccc(C(=O)c2ccc(Cl)cc2)cc1)C(=O)O [FENOFIBRIC ACID]
- Activity (HepG2 [1]): Dose-dependent effect

- Activity [6]: 28%
- Activity [7]: 23%
- Activity [10]: 15%
- Activity [11]: 46%
- Activity [14]: inactive
- Activity [15]: 134%
- EC50 [16]: 41.3 µM
- Activity [17]: Dose-dependent effect
- Activity [18]: Active
- Activity [20]: 195%
- Activity [21]: 1020%
- Activity [3]: inactive
- Activity [4]: inactive
- Activity [23]: 214%
- Activity [24]: 259%
- Activity [25]: 24%
- Activity [26]: 156%
- Activity [27]: 185%
SMILES: C[C@H]1[C@H](C)CC[C@]2(C(=O)O)CC[C@]3(C)C(=CC[C@@H]4[C@@]5(C)CC[C@H](O)C(C)(C)[C@@H]5CC[C@]43C)[C@H]12 [URSOLIC ACID]
- Activity (HepG2 [5]): 38.8%
- Activity (HepG2 [8]): 23.5%
- Activity (HepG2 [9]): 11%
- Activity (HepG2 [12]): 44.7%
- Activity (HepG2 [13]): 108.7%
- Activity (HepG2 [19]): 26.5%
- Activity (HepG2 [22]): 18.9%
